Source: the NIST ThermoML archive (doi:10.1021/je050031f)
± gives the expanded uncertainty stated by the source.

Test: xn = mol fraction of the nth substance listed
Settings: 100.8 kPa, Liquid; for viscosity: Capillary tube (Ostwald / Ubbelohde) method

CC1CCCCC1 [methylcyclohexane] + CC(C)OC(C)C
Settings	mass density, 288.15 K [kg/m3]	mass density, 298.15 K [kg/m3]	mass density, 308.15 K [kg/m3]	viscosity, 298.15 K [mPa·s]	viscosity, 308.15 K [mPa·s]
x2 = 0	–	765 ± 0.3	756.3 ± 0.3	0.685	0.6
x2 = 0.0502	–	762.5 ± 0.3	753.8 ± 0.3	0.653	0.575
x2 = 0.1	–	760.1 ± 0.3	751.3 ± 0.3	0.612	0.542
x2 = 0.15	–	757.7 ± 0.3	748.8 ± 0.3	0.579	0.514
x2 = 0.2	–	755.3 ± 0.3	746.3 ± 0.3	0.551	0.489
x2 = 0.25	–	752.9 ± 0.3	743.8 ± 0.3	0.524	0.467
x2 = 0.3	–	750.5 ± 0.3	741.3 ± 0.3	0.502	0.448
x2 = 0.35	–	748.1 ± 0.3	738.9 ± 0.3	0.481	0.43
x2 = 0.4	–	745.8 ± 0.3	736.4 ± 0.3	0.464	0.415
x2 = 0.45	–	743.4 ± 0.3	734 ± 0.3	0.447	0.401
x2 = 0.5	750.6 ± 0.3	741.1 ± 0.3	731.6 ± 0.3	0.431	0.387
x2 = 0.55	748.4 ± 0.3	738.8 ± 0.3	729.2 ± 0.3	0.415	0.373
x2 = 0.6	746.2 ± 0.3	736.5 ± 0.3	726.8 ± 0.3	0.399	0.36
x2 = 0.65	743.9 ± 0.3	734.2 ± 0.3	724.4 ± 0.3	0.385	0.347
x2 = 0.7	741.7 ± 0.3	731.9 ± 0.3	722 ± 0.3	0.372	0.335
x2 = 0.75	739.6 ± 0.3	729.6 ± 0.3	719.6 ± 0.3	0.361	0.325
x2 = 0.8	737.4 ± 0.3	727.3 ± 0.3	717.3 ± 0.3	0.349	0.316
x2 = 0.85	735.3 ± 0.3	725.1 ± 0.3	714.9 ± 0.3	0.341	0.308
x2 = 0.9	733.1 ± 0.3	722.9 ± 0.3	712.6 ± 0.3	0.331	0.299
x2 = 0.95	731 ± 0.3	720.6 ± 0.3	710.3 ± 0.3	0.321	0.291
